Source: the supplement of paper PMC13207355

Assays:
Settings in all cases: exposure time: 72 h
E13 [1] = patient-derived glioblastoma stem cells of classical subtype; experiment: surviving fraction (nuclei count normalised to DMSO); higher = more cells surviving (less toxic)
E21 [2] = patient-derived glioblastoma stem cells of mesenchymal subtype; experiment: as above
E28 [3] = patient-derived glioblastoma stem cells of classical subtype; experiment: as above
E31 [4] = patient-derived glioblastoma stem cells of proneural subtype; experiment: as above
E34 [5] = patient-derived glioblastoma stem cells of proneural subtype; experiment: as above
E57 [6] = patient-derived glioblastoma stem cells of mesenchymal subtype; experiment: as above
FT3469 [7] = normal neural stem cell line; experiment: as above
E13 [8] = experiment: phenotypic distance (Euclidean, principal components) from DMSO controls (arbitrary units); higher = stronger morphological change
E21 [9] = experiment: as above
E28 [10] = experiment: as above
E31 [11] = experiment: as above
E34 [12] = experiment: as above
E57 [13] = experiment: as above
FT3469 [14] = experiment: as above
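For phenotypic distance (Euclidean, principal components) from DMSO controls in this document: cell Painting imaging in 384-well plates, CellProfiler features reduced to at least 20 principal components, Euclidean distance versus same-plate DMSO vehicle wells (0.1% v/v), median over six images per well.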
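For surviving fraction (nuclei count normalised to DMSO) in this document: nuclei counted by high-content imaging of Hoechst-stained cells in laminin-coated 384-well plates, relative to 0.1% DMSO vehicle wells, with staurosporine as cell-death control.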

C/C=C(\C)C(=O)N[C@@H](c1ccccc1)[C@@H](O)C(=O)O[C@H]1C[C@@]2(O)[C@@H](OC(=O)c3ccccc3)[C@@H]3[C@]4(OC(C)=O)CO[C@@H]4C[C@H](O)[C@@]3(C)C(=O)[C@H](OC(C)=O)C(=C1C)C2(C)C [Cephalomannine]
Settings | phenotypic distance | surviving fraction
E13 [1], 4.11523 nM | – | 0.308
E13 [1], 12.34567901 nM | – | 0.245
E13 [1], 37.037 nM | – | 0.27
E13 [1], 111.1111111 nM | – | 0.137
E13 [1], 333.333 nM | – | 0.171
E13 [1], 1000 nM | – | 0.171
E13 [1], 3000 nM | – | 0.19
E13 [8], 4.11523 nM | 4.23 | –
E13 [8], 12.34567901 nM | 4.51 | –
E13 [8], 37.037 nM | 4.54 | –
E13 [8], 111.1111111 nM | 6.45 | –
E13 [8], 333.333 nM | 5.33 | –
E13 [8], 1000 nM | 5.74 | –
E13 [8], 3000 nM | 5.58 | –
E21 [2], 4.11523 nM | – | 0.335
E21 [2], 12.34567901 nM | – | 0.327
E21 [2], 37.037 nM | – | 0.209
E21 [2], 111.1111111 nM | – | 0.246
E21 [2], 333.333 nM | – | 0.213
E21 [2], 1000 nM | – | 0.214
E21 [2], 3000 nM | – | 0.198
E21 [9], 4.11523 nM | 4.99 | –
E21 [9], 12.34567901 nM | 5.05 | –
E21 [9], 37.037 nM | 5.62 | –
E21 [9], 111.1111111 nM | 6.2 | –
E21 [9], 333.333 nM | 5.44 | –
E21 [9], 1000 nM | 6.44 | –
E21 [9], 3000 nM | 7.14 | –
E28 [3], 4.11523 nM | – | 0.515
E28 [3], 12.34567901 nM | – | 0.557
E28 [3], 37.037 nM | – | 0.304
E28 [3], 111.1111111 nM | – | 0.357
E28 [3], 333.333 nM | – | 0.302
E28 [3], 1000 nM | – | 0.286
E28 [3], 3000 nM | – | 0.249
E28 [10], 4.11523 nM | 3.22 | –
E28 [10], 12.34567901 nM | 3.3 | –
E28 [10], 37.037 nM | 3.65 | –
E28 [10], 111.1111111 nM | 3.5 | –
E28 [10], 333.333 nM | 3.82 | –
E28 [10], 1000 nM | 3.7 | –
E28 [10], 3000 nM | 4.32 | –
E31 [4], 4.11523 nM | – | 0.23
E31 [4], 12.34567901 nM | – | 0.132
E31 [4], 37.037 nM | – | 0.12
E31 [4], 111.1111111 nM | – | 0.11
E31 [4], 333.333 nM | – | 0.0834
E31 [4], 1000 nM | – | 0.12
E31 [4], 3000 nM | – | 0.148
E31 [11], 4.11523 nM | 3.6 | –
E31 [11], 12.34567901 nM | 4.39 | –
E31 [11], 37.037 nM | 3.82 | –
E31 [11], 111.1111111 nM | 4.56 | –
E31 [11], 333.333 nM | 4.66 | –
E31 [11], 1000 nM | 3.37 | –
E31 [11], 3000 nM | 3.61 | –
E34 [5], 4.11523 nM | – | 0.497
E34 [5], 12.34567901 nM | – | 0.442
E34 [5], 37.037 nM | – | 0.356
E34 [5], 111.1111111 nM | – | 0.284
E34 [5], 333.333 nM | – | 0.293
E34 [5], 1000 nM | – | 0.356
E34 [5], 3000 nM | – | 0.382
E34 [12], 4.11523 nM | 3.55 | –
E34 [12], 12.34567901 nM | 3.84 | –
E34 [12], 37.037 nM | 3.81 | –
E34 [12], 111.1111111 nM | 3.17 | –
E34 [12], 333.333 nM | 3.79 | –
E34 [12], 1000 nM | 3.73 | –
E34 [12], 3000 nM | 3.93 | –
E57 [6], 4.11523 nM | – | 0.156
E57 [6], 12.34567901 nM | – | 0.125
E57 [6], 37.037 nM | – | 0.0853
E57 [6], 111.1111111 nM | – | 0.0579
E57 [6], 333.333 nM | – | 0.0628
E57 [6], 1000 nM | – | 0.0598
E57 [6], 3000 nM | – | 0.0598
E57 [13], 4.11523 nM | 5.45 | –
E57 [13], 12.34567901 nM | 5.1 | –
E57 [13], 37.037 nM | 5.59 | –
E57 [13], 111.1111111 nM | 5.43 | –
E57 [13], 333.333 nM | 5.14 | –
E57 [13], 1000 nM | 5.43 | –
E57 [13], 3000 nM | 5.27 | –
FT3469 [7], 4.11523 nM | – | 0.62
FT3469 [7], 12.34567901 nM | – | 0.646
FT3469 [7], 37.037 nM | – | 0.577
FT3469 [7], 111.1111111 nM | – | 0.441
FT3469 [7], 333.333 nM | – | 0.378
FT3469 [7], 1000 nM | – | 0.465
FT3469 [7], 3000 nM | – | 0.449
FT3469 [14], 4.11523 nM | 2.71 | –
FT3469 [14], 12.34567901 nM | 2.83 | –
FT3469 [14], 37.037 nM | 3.01 | –
FT3469 [14], 111.1111111 nM | 3.67 | –
FT3469 [14], 333.333 nM | 3.37 | –
FT3469 [14], 1000 nM | 3.99 | –
FT3469 [14], 3000 nM | 4.09 | –
